These results are taken from patent publication USRE32868E, “Antihyperlipidemic compositions” (Research Corporation, priority 1985, dated 1989).

In the series the test system is mice. The series is described as follows: Acute toxicity (LD50) in mice. It is filed as in vivo. The conditions noted are these: 2 g/kg. The source says:
They also are non-toxic. […] Moreover, there is no evidence that the weight of any of the major organs is altered as a result of treatment with compounds used in the invention.

As for `CC(=O)CN1C(=O)c2ccccc2C1=O` [1-N--Phthalimidopropan-2-one], the deaths entry is “no deaths were observed”.
